{"source": "patent US6368831B1", "about": "“Treatment of hyperproliferative disorders” (Childrens Hospital Los Angeles, priority 1998, dated 2002)", "key": {"[1]": {"tested_on": "CHLA-90 cells", "experiment": "Flow cytometry sub G0/G1 DNA content, CHLA-90", "format": "cell-based, human", "conditions": "BOC-d-fmk 40 μM, HPR 10 μM, +24 hours"}, "[2]": {"tested_on": "SK-N-RA neuroblastoma cells", "experiment": "DIMSCAN cytotoxicity assay, SK-N-RA", "format": "cell-based", "conditions": "for Combination Index (C.I.) at LD99: PPMP isomer plus HPR at 1:1 micromolar ratio, +96-120 hours", "method": "(§1) Cytotoxicity is determined using the DIMSCAN assay system (R. Proffitt et al., Cytometry 24, 204-213 (1996); T. Frgala et al., Proc. AACR, 36, 303 (1995). The system employs digital imaging microscopy to quantify viable cells, which selectively accumulate fluorescein diacetate to become brightly fluorescent. The system is capable of measuring cytotoxicity over a 4-5 log dynamic range by quenching the residual fluorescence of dead and dying cells with eosin Y and quantifying the total fluorescence of viable cells using digital thresholding. Measured fluorescence is directly proportionate to the number of viable cells. A comparison of the total fluorescence of a drug-treated cell population to the fluorescence of a similar number of untreated cells yields a survival fraction. In brief, 5000 to 10,000 SK-N-RA neuroblastoma cells/well are replicate plated into 60 wells of a 96-well tissue culture plate in 0.1 cc media and allowed to attach overnight. Drug(s) are then added in 0.05 cc media to the final concentrations indicated. There are 12 wells treated per drug concentration. Twelve wells receive drug-vector only to the appropriate final concentration and serve as controls for the plate. Cells are incubated for 96-120 hours at 37° C. in 5% CO2. Fluorescein diacetate is then added to each well in 0.05 cc media to a final concentration of 8 microgram/cc. Cells are incubated for a further 15 minutes at 37° C. and 0.03 cc of 0.5% eosin Y is added to each well. Total fluorescence of viable cells is then measured by digital imaging microscopy.\nAs reported above, we have succeeded in increasing the cytotoxicity of 4-HPR through inhibition of several ceramide-related pathways. Most of the inhibitors used have been only studied in vitro. […]\nMethods. […] Cytotoxocity is expressed as the fraction of cells surviving (Survival Fraction, S.F.). […] Cytotoxic synergy was analyzed by Combination Index (C.I.) analysis calculated at the dose lethal to 99% of exposed cells (LD99). Statistical analysis of the differences in mean cytotoxicity was evaluated by the unpaired, two-sided Student's t test."}, "[3]": {"tested_on": "CHLA-90 neuroblastoma cells", "experiment": "DIMSCAN cytotoxicity assay, CHLA-90", "format": "cell-based", "conditions": "for Combination Index (C.I.) at LD99: PPMP isomer plus HPR at 1:1 micromolar ratio, +96-120 hours; for cell survival on addition of safingol to the retinoid: retinoid plus safingol 3:1 molar ratio vs retinoid alone", "method": "as §1\n(§2) Methods. Cells were added in 100 μL whole medium per well to 96-well microplates for DIMSCAN cytotoxicity assay as previously described. Cell lines used were the neuroblastoma cell lines CHLA-90 and LAN-6. At Time=0, either all-trans-retinoic acid (ATRA), 13-cis-retinoic acid (13-cis-RA) or a combination of retinoid plus safingol at a 3:1 molar ratio were added in 50 μL whole medium. Plates were incubated and assayed for cytotoxicity by DIMSCAN assay at +120 for CHLA-90 cells and+144 hours for LAN-6 cells.\nMethods. To determine the manner in which 4-HPR or HPR+safingol induced cell death in neuroblastoma cells, morphological evidence of apoptosis and/or necrosis was assessed in CHLA-90 cells in the presence or absence of a specific as inhibitor of apoptosis, the neural cell-penetrant, pan-caspase enzyme inhibitor, BOC-d-fink (Enzyme Systems Products, Livermore, Calif.). […] CHLA-90 cells were plated in duplicate in whole medium in Lab Tek chamber slides (Nunc, Naperville, Ill.), allowed to attach for 24 hours, and then treated in the presence or absence of BOC-d-fink (40 μM) for one hour prior to treatment with HPR (10 μM). Control cells were treated with vehicle solvents of 0. 1% ethanol (4-HPR) and/or 0.2% DMSO (BOC-d-fink). Morphological features of apoptosis (DNA condensation and/or apoptotic bodies) were visualized in undetached cells at +24 or +48 hours using blue nuclear fluorescence induced by the supravital DNA stain Hoechst 33342 (10 μg/ml for 30 mins at 37° C.), while necrotic cells and advanced apoptotic cells were recognized by red fluorescent staining with propidium iodide (0.5 μM/ml). Red fluorescently-staining cells with condensed nuclear remnants were scored as apoptotic cells. For cells assayed at +48 hours, additional BOC-d-fink (40 μM) or appropriate control vehicle was added at +24 hours. Cells were observed using filters appropriate for each dye sequentially on an Olympus Vanox epifluorescence microscope. Mutiple random fields of cells (of ˜100-500 cells each) were counted and photographed for viable cells, apoptotic cells, and necrotic cells. To further examine cells treated with HPR, cytotoxicity assays were performed on CHLA-90 cells pretreated with or without 40 μM BOC-d-fmk for one hour prior to the addition of 4-HPR (3-10 μM) and assayed at +24 hours by DIMSCAN assay to assess the effect of caspase inhibition on viability. […]"}, "[4]": {"tested_on": "LAN-6 neuroblastoma cells", "experiment": "DIMSCAN cytotoxicity assay, LAN-6", "format": "cell-based, human", "conditions": "+144 hours; for cell survival on addition of safingol to the retinoid: retinoid plus safingol 3:1 molar ratio vs retinoid alone", "method": "as §1, with “A comparison of the total fluorescence of a drug-treated cell population to the fluorescence of a similar number of untreated cells yields a survival fraction.” left out\nas §2"}, "[5]": {"tested_on": "Neuro2a neuroblastoma cells", "conditions": "cited from earlier work"}, "[6]": {"tested_on": "MCF7/GCS cells", "experiment": "DIMSCAN cytotoxicity assay, MCF7/GCS tet OFF vs tet ON", "format": "cell-based, human", "conditions": "96 hours, P<0.005 at >6 μM HPR, safingol 0-4 μM", "excerpt": "We have shown that HPR generates ceramide in neuroblastoma tumor cell lines in a dose- and time-depenent manner (B. Maurer et al., J. Natl. Cancer Inst. (1999)(in press)). Glucosylceramide (GC) is a nontoxic metabolite of ceramide. Ceramide is converted into glucosylceramide by the action of glucosylceramide synthase (GCS). Glucosylceramide synthase (GCS) has been transfected into human MCF7 breast cancer cells in a tetracycline-inducible expression construct in the MCF7/GCS cell line (Y. Liu et al., J. Biol. Chem. 274:1140-46 (1999)). […] We have exposed MCF7/GCS cells to HPR, safingol and HPR+safingol in the absence, and in the presence, of doxycycline.\nMethods. MCF7/GCS cells were plated and incubated in RPMI medium with 10% fetal bovine serum and 200 microgram/ml Hygromycin B (tet OFF) for DIMSCAN cytotoxicity assays as previously described. To increase GCS expression, MCF7/GCS cells were also incubated in the above medium with 3 microgram/ml doxycycline (tet ON) for three days prior to replating them for DIMSCAN cytotoxicity assay. DIMSCAN assays with doxycycline-induced (tet ON) cells also included 3 microgram/ml doxycycline in the medium. Both “tet OFF” and “tet ON” MCF7/GCS cells were exposed to HPR, safingol and HPR+safingol (3:1 molar ratio) for 96 hours and assayed for survival fraction by DIMSCAN as previously described."}, "[7]": {"conditions": "Phase I; one hour infusion at 120 mg/m^2; cited from earlier work"}}, "data": [{"smiles": "COC(=O)CC(NC(=O)OC(C)(C)C)C(=O)CF", "note": "(stereo not drawn) [BOC-d-fmk]", "values": [{"measurement": "sub G0/G1 DNA-fragmentation induced by HPR", "setting": "[1]", "result": "abrogated"}]}, {"smiles": "CCCCCCCCCCCCC/C=C/[C@@H](O)[C@H](CO)N(C)C", "note": "[N-DMS, d-erythro-N,N-dimethylsphingosine]", "values": [{"measurement": "cytotoxicity when added to fenretinide and PPMP", "setting": "[2]; 5 μM fenretinide fixed plus 5 μM PPMP fixed plus N-DMS, 20% O2", "result": "increased cytotoxicity"}]}, {"smiles": "CCCCCCCCCCCCCCCC(=O)NC(CN1CCOCC1)C(O)c1ccccc1", "note": "[D,L-threo-PPMP, 1-phenyl-2-palmitoylamino-3-morpholino-1-propanol]", "values": [{"measurement": "Combination Index (C.I.) at LD99", "setting": "[2]", "result": "< 0.01"}, {"measurement": "Combination Index (C.I.) at LD99", "setting": "[3]", "result": "< 0.09"}]}, {"smiles": "CC1=C(/C=C/C(C)=C/C=C/C(C)=C\\C(=O)O)C(C)(C)CCC1", "note": "[13-cis-RA, 13-cis-retinoic acid]", "values": [{"measurement": "cell survival on addition of safingol to the retinoid", "setting": "[4]", "result": "significant decrease in the cell survival"}, {"measurement": "cell survival on addition of safingol to the retinoid", "setting": "[3]; +120 hours", "result": "significant decrease in the cell survival"}]}, {"smiles": "CC1=C(/C=C/C(C)=C/C=C/C(C)=C/C(=O)O)C(C)(C)CCC1", "note": "[ATRA, all-trans-retinoic acid]", "values": [{"measurement": "cell survival on addition of safingol to the retinoid", "setting": "[4]", "result": "significant decrease in the cell survival"}, {"measurement": "increase in the level of ceramide", "setting": "[5]", "result": 1.5, "unit": "×"}, {"measurement": "cell survival on addition of safingol to the retinoid", "setting": "[3]; +120 hours", "result": "significant decrease in the cell survival"}]}, {"smiles": "CCCCCCCCCCCCCCCC(=O)NC(CN1CCOCC1)C(O)c1ccccc1", "note": "[D,L-erythro-PPMP, 1-phenyl-2-palmitoylamino-3-morpholino-1-propanol]", "values": [{"measurement": "Combination Index (C.I.) at LD99", "setting": "[2]", "result": "< 0.06"}, {"measurement": "Combination Index (C.I.) at LD99", "setting": "[3]", "result": 0.18}]}, {"smiles": "CCCCCCCCCCCCCCC[C@H](O)[C@@H](N)CO", "note": "[Safingol, (2S,3S)-2-amino-1,3-octadecanediol]", "values": [{"measurement": "change of cytotoxicity in tet ON (doxycycline, GCS induced) compared to tet OFF cells", "setting": "[6]", "result": "no significant decrease"}, {"measurement": "reported toxicities", "setting": "[7]", "result": "no reported toxicities"}, {"measurement": "serum levels during infusion", "setting": "[7]", "result": 3000, "unit": "nM"}, {"measurement": "Survival Fraction", "setting": "[4]; safingol alone at 4 μM", "result": 0.39}, {"measurement": "Survival Fraction", "setting": "[3]; safingol alone at 4 μM, +120 hours", "result": 0.11}]}]}
